Assay results reported in patent US11634388B2 (Chengdu Easton Biopharmaceuticals Co., Ltd., priority 2018, dated 2023).
Counter-ions that a name gives are not always drawn.

Assays:
[1] = Pharmacokinetic study in rats; type: in vivo; conditions: male, rat, plasma, po; SD rats, intragastric 10 mg/kg, suspension in oil, mean ± SD
Procedure: About 20 mg of the test drug was taken, added into 8 mL of vegetable oil and shaken well, to prepare a 2.5 mg/mL suspension.
6 SD rats, all males, 200-220 g, provided by Chengdu Dashuo Biotechnology Co., Ltd.
The rats were intragastrically administrated with 10 mg/kg of the drug. Before administration and at 5 min, 15 min, 30 min, 1 h, 2 h, 4 h, 6 h, 8 h, 24 h after administration, 0.2 mL of jugular blood was taken and placed in EDTA-K2 anticoagulant tube, centrifuged for 10 min at 3000 r/min. The plasma was separated and frozen in the refrigerator at −80° C. After all blood collections were completed, the blood drug concentration in each blood sample was analyzed and determined autonomously, and the parameters of the test drugs (Tmax, time to maximum plasma concentration; Cmax, maximum plasma concentration; AUClast) were calculated.

[2] = Determination of the dissolution rate (500 ml medium, 37° C., 50 r/min, HPLC); type: physicochemical
Procedure: (50 r/min). At 5 min, 10 min, 15 min, 20 min, 30 min, 45 min and 60 min, the concentrations of lenvatinib in the medium were determined by using high performance liquid chromatography.

[3] = Stability study of crystal form (XRPD before and after placement); type: physicochemical
[4] = prior art WO2018164436; cited from earlier work
[5] = pH 1.0 medium (hydrochloric acid), 5 min
[6] = pH 6.8 medium (potassium dihydrogen phosphate buffer), 5 min

| concentration of lenvatinib in the medium [2, 5] [µg/mL] | concentration of lenvatinib in the medium ([2]; pH 1.0 medium, 10 min) [µg/mL] | concentration of lenvatinib in the medium ([2]; pH 1.0 medium, 15 min) [µg/mL] | concentration of lenvatinib in the medium ([2]; pH 1.0 medium, 20 min) [µg/mL] | concentration of lenvatinib in the medium ([2]; pH 1.0 medium, 30 min) [µg/mL] | concentration of lenvatinib in the medium ([2]; pH 1.0 medium, 45 min) [µg/mL] | concentration of lenvatinib in the medium ([2]; pH 1.0 medium, 60 min) [µg/mL] | concentration of lenvatinib in the medium [2, 6] [µg/mL] | concentration of lenvatinib in the medium ([2]; pH 6.8 medium, 10 min) [µg/mL] | concentration of lenvatinib in the medium ([2]; pH 6.8 medium, 15 min) [µg/mL] | concentration of lenvatinib in the medium ([2]; pH 6.8 medium, 20 min) [µg/mL] | concentration of lenvatinib in the medium ([2]; pH 6.8 medium, 30 min) [µg/mL] | concentration of lenvatinib in the medium ([2]; pH 6.8 medium, 45 min) [µg/mL] | concentration of lenvatinib in the medium ([2]; pH 6.8 medium, 60 min) [µg/mL] | SMILES | other results |
| --- | --- | --- | --- | --- | --- | --- | --- | --- | --- | --- | --- | --- | --- | --- | --- |
| 1480 | 1540 | 1540 | 1520 | 1560 | 1570 | 1600 | 3.6 | 3.8 | 3.9 | 3.9 | 3.9 | 3.9 | 4 | COc1cc2nccc(Oc3ccc(NC(=O)NC4CC4)c(Cl)c3)c2cc1C(N)=O [Crystal form X, lenvatinib mesylate] | AUC(0-t) [1]: 90900 ± 19600 ng·h/mL; Cmax [1]: 9.87 µg/mL; Tmax [1]: 1.17 ± 0.41 h; crystal transformation before and after the stability tests ([3]; all conditions of Table 4): did not undergo crystal transformation; Result of crystal form (XRPD) ([3]; high humidity 25° C., RH 93.5%, 1 month): No obvious change; Result of crystal form (XRPD) ([3]; high humidity 25° C., RH 93.5%, 7 days): No obvious change; Result of crystal form (XRPD) ([3]; strong light illumination, 7 days): No obvious change; Result of crystal form (XRPD) ([3]; temperature 2~8° C., 10 days): No obvious change |
| 410 | 470 | 520 | 550 | 610 | 670 | 720 | 2.7 | 3 | 3.1 | 3.2 | 3.3 | 3.4 | 3.5 | COc1cc2nccc(Oc3ccc(NC(=O)NC4CC4)c(Cl)c3)c2cc1C(N)=O [Crystal form C, lenvatinib mesylate, reference compound] |  |
|  |  |  |  |  |  |  |  |  |  |  |  |  |  | COc1cc2nccc(Oc3ccc(NC(=O)NC4CC4)c(Cl)c3)c2cc1C(N)=O [crystal form M, lenvatinib mesylate] | solubility [4]: not evidently improved |
